Laboratory results taken from US11484576B2, “Methods of promoting corticospinal neuronal outgrowth in neuronal lesions using a pro-regenerative human osteopontin fragment” (THE CHILDREN'S MEDICAL CENTER CORPORATION, priority 2017, dated 2022).

What was measured:
[1] = system: mice with T10 lateral hemisection; experiment: Ground walking and treadmill walking after T10 lateral hemisection; assay type: in vivo, mouse; conditions: i.p.
Procedure: (§1) Injury Models. […] Briefly, a midline incision was made over the thoracic vertebrae, followed by a T10 laminectomy. The unilateral hemisection was then performed carefully using both scalpel and micro-scissors, avoiding, to the greatest extent, the damage of the spinal cord dura. The muscle layers were then sutured and the skin was secured with wound clips. All mice received post hoc histological analysis and those with spared CST axons (incomplete lateral hemisection) or with significant less CST axons on the contra-lesional side (over lateral hemisection) at the lumbar spinal cord (L3), exemplified in FIG. 9A, were excluded for behavioral analysis.
(§2) Pharmacological Treatment. […] All behavioral tests were then accomplished between 1-3 hours post administration.

injured mice = experiment: Adverse effects of systemic potassium channel blockers in injured mice; assay type: in vivo; conditions: injured mice treated with OPN/IGF1
Procedure: Chemicals and Antibodies. For systematic administration (i.p.), Quipazine [Sigma (Q1004), 0.2 mg/kg), SKF-82197 [Tocris (1447) 0.1 mg/kg], and 8-OH-DPAT [Tocris (0529), 0.1 mg/kg), 4AP [Sigma (275875), 1 mg/kg, 3 mg/kg), 4AP-MeOH [Santa Cruz (sc-267247), (1 mg/kg)] were dissolved in saline. Tamoxifen (Sigma, 10540-29-1) was dissolved in oil. For diphtheria toxin mediated cell ablation, we purchased the diptheria toxin from Sigma (D0564). For immunostaining, the primary antibody used were chicken anti-GFP [Abcam (Cat: ab13970)], rabbit anti-RFP [Abcam (Cat: ab34771)], rabbit anti-PKCγ [Santa Cruz (sc211)], rabbit anti-GFAP [DAKO (Z0334)]; rabbit anti-5-HT [Immunostar (20080)], rabbit-anti-IGFR [Santa Cruz (sc-712)] rabbit-anti-pIGFR[3 [Cell signaling technology (3024)], rabbit-anti-pS6 [Cell signaling technology (4857)], rat anti-CD68 [Bio-Rad (MCA 1957)], and Guinea pig-anti-Vglut1 [Synaptic Systems (135304)].
Pharmacological Treatment. […] A pilot experiment was performed and determined that 4AP (1 mg/kg, 3 mg/kg) and 4AP-MeOH (1 mg/kg) achieved their maximal effects within 1-3 hours post systematic administration (i.p.). […]

[2] = system: mice with T10 lateral hemisection; experiment: Irregular ladder walking after spinal cord T10 lateral hemisection; assay type: in vivo, mouse; conditions: OPN/IGF1 treated group, T10 hemisection
Procedure: as §1
Virus and Protein Injection.
Irregular Ladder Walking. […] Briefly, the ladder was elevated 30 cm above the ground. […] To prevent animals from learning the pattern, the irregular pattern was changed from trial to trial. All trials were video recorded (Hotshot e64, 100 fps) and paw placement was analyzed twice by blinded observers. Steps with precise placement of the center of the palm on the rung (for both forelimbs and hindlimbs) and digits closed (for forelimbs) were defined as correct steps (hit). All other steps were recorded as errors, which included two types: 1) Miss: when crossing the ladder, the forelimb/hindlimb either completely miss the rung or contact the rung with the wrist/heel instead of the paw; 2) Slip: when crossing the ladder, the mice use a few digits instead of the paw to place on the rungs, causing the subsequent slip on the rungs. The results were expressed as both percentage of total errors and percentage of different placement categories (hit, miss and slip).
as §2

[3] = system: mice with unilateral photothrombotic stroke; experiment: Single pellet retrieval and irregular ladder walking after unilateral photothrombotic cortical stroke; assay type: in vivo, mouse; conditions: ischemic mice treated with OPN/IGF1
Source text: The procedure of unilateral photothrombotic stroke was similar to that described elsewhere (Watson et al., 1985; Wahl et al., 2014). Briefly, mice were fixed in a stereotactic frame, with the skull exposed. To unilaterally cover the sensoromotor cortex, the cold light source (Zeiss, CL 1500HAL, 3000K) was positioned over an opaque template with an opening (a circle with a diameter of 2.5 mm) centered at (−0.5, 2.0 mm, anterior and lateral to the bregma) on the cortex contralateral to the preferred paw in the food pellet retrieval task. […] Lesion volumes were calculated when mice brains were fixed at the end point of the experiments.
Irregular Ladder Walking. […] All trials were video recorded (Hotshot e64, 100 fps) and paw placement was analyzed twice by blinded observers. […] All other steps were recorded as errors, which included two types: 1) Miss: when crossing the ladder, the forelimb/hindlimb either completely miss the rung or contact the rung with the wrist/heel instead of the paw; 2) Slip: when crossing the ladder, the mice use a few digits instead of the paw to place on the rungs, causing the subsequent slip on the rungs. The results were expressed as both percentage of total errors and percentage of different placement categories (hit, miss and slip).
Single pellet Retrieval. […] The success rate was calculated as: number of successful retrievals/total attempts per trail *100. […]

## Nc1ccncc1CO [4-AP-MeOH, 4-aminopyridine-3-methanol]
[1]
  recovery of treadmill walking performance compared to the control: neither 4-AP nor 4-AP-MeOH had significant effects
Injured mice
  effect and safety compared to 4-AP: significantly better effects with broader safety doses
[2]; 1 mg/kg i.p.
  error rate, irregular ladder walking, after 4-AP-MeOH: 30%
[2]
  error rate, irregular ladder walking, before 4-AP-MeOH: about 48%
[3]
  additional effect on single pellet retrieval and irregular ladder walking: further improvements on both assays
